“Also recorded” adds a separate entry of the source.
Tests used:
[1] = tested on: adult, female mosquitoes; experiment: Topical application on adult female mosquitoes (24-h mortality, 1-h knockdown); type: in vivo, mosquito
[2] = tested on: Western corn rootworm larvae; experiment: Seed treatment testing: rootworm survival (FIG. 2A); type: in vivo; conditions: seeds coated with compound; 1 week after introduction of larvae
Experimental: (§1) Corn seeds used were a non-transgenic type strain of corn to prevent confounding results. Germination typically occurred between 2-4 days after moistening.
(§2) Seed coating was accomplished by placing 20 g of corn seeds or soybeans into a container with approximately 1 mL of a 1:5 Elmer's glue:water solution with a small amount of Triton-X100™ (present 100 μL/5 mL). For solid compounds, 0.25 g of compound was subsequently introduced into the container. This mixture of seeds, Elmer's Glue/water/Triton-X 100™ solution, and active compound was mixed thoroughly until seeds were coated with the active ingredient.
(§3) For each treatment, 0.25 g of liquid compound was dissolved in 5 mL of hexane. 0.25 g of Hi-Sil 233 silica gel was introduced into this mixture of hexane and active ingredient. The solvent was blown-off using a rotary evaporator, allowing for the compound to adsorb to the silica gel. This 0.5 g of silica gel:active ingredient was then used as the solid material used for coating the seeds. The seeds were then coated with the same method used for solid compound.
(§4) Three corn seeds coated in pogostone derivative treatments were germinated in small, 2-oz. […] Germination of seedlings was also recorded at the end of the assay by counting the total number of seeds that produced roots out of the 3 seeds in each container/replicate and recorded as total percentage germination. […]

[3] = tested on: corn seeds; experiment: Seed treatment testing: survival/germination of treated corn seeds (FIG. 2B); type: in vivo; conditions: seeds coated with compound; 1 week after introduction of larvae
Experimental: as §1, §2, §3, §4

[4] = tested on: house flies; experiment: Spray-cup testing, house flies (FIG. 3a); type: in vivo, house fly; conditions: Formula 13 2.5% w/v in water vs thymol 2.5% or 10% w/v
Experimental: 10 adults of various arthropod species used for this characterization were placed into 8 oz. ice cream cups with tulle placed over the top to prevent the escape of arthropods from the container. Test formulations were added to spray bottles ([…]™) and applied at the same distance and spray number to eliminate variation between manufacturer spray bottles. For all experiments, spray bottles were set to mist in order to prevent excess formulation from accumulating in the cups. […] Mortality was recorded at 1 min, 5 min, 10 min, 15 min, 30 min, 4 hours, and 8 hours for each replicate. A minimum of 3 replicates of 10 arthropods/cup/replicate were performed for each formulation. Data was modeled using a logarithmic regression to show the speed-to-kill of each formulation and highlight differences among treatment groups. Different spray amounts were used for each arthropod, depending on susceptibility, e.g.:
House flies=8 sprays, 3 in […]

[5] = tested on: adult female Aedes aegypti; experiment: Topical combination of Formula 13 with synthetic insecticides (FIGS. 6-9); type: in vivo
Experimental: A low-dose concentration of Formula 13 (500 μg/mL) was applied in combination with chlorfenapyr (75 μg/mL), dibrom (10 μg/mL), thiamethoxam (100 μg/mL), and permethrin (2.5 μg/mL) to the pronotum of adult female Aedes aegypti in 0.2 μL of acetone. These concentrations were chosen as they produced little-to-no mortality at 24 hours after application. Knockdown (immobilization) was recorded at 1 hour after application and mortality was recorded at 24, 48, and 72 hours after initial application. These applications were run in parallel to a topical application of a combined mixture of 500 μg/mL Formula 13 and 75 μg/mL of chlorfenpayr to the pronotum of adult female mosquitoes. For this experiment, total of 25 mosquitoes were treated within each replicate, with a minimum of 3 replicates utilized for each treatment. Synergism was defined as the higher percentage mortality in the insecticidal combination of both Formula 13 and chlorfenapyr compared to each individual component applied by itself.

[6] = tested on: adult female mosquitoes; experiment: whole plant or invertebrate; conditions: topical
Experimental: The first group of DHAA-based derivatives that were tested included Formula A2, Formula B3, Formula C3, and Formula D3. A solution of 0.5% or 1.5% of each of these compounds was applied to the mosquitoes, as described above. […] Acetone was used as a control.

## CC(C)CCC(=O)c1c(O)c2ccccc2oc1=O [Formula 13]
[1]; topical, 1 h, read-out: KD50 (ug/g mosquito)
  ED50: 182 mg/kg
[1]; topical, 24 h, read-out: LD50 (ug/g mosquito)
  LD50: 119 mg/kg
[1]; words, refers to Table 1
  insecticidal properties compared with natural pogostone, natural pyrethrins or terpenoids: possessed better insecticidal properties than natural pogostone
[2]
  western corn rootworm mortality: significant western corn rootworm mortality
[3]
  phytotoxicity to treated corn seeds: did not; also recorded: do not cause phytotoxicity
[4]
  efficacy (mortality) compared with thymol: outperformed thymol at all time points; also recorded: surpassed the efficacy of thymol at both an equal or higher concentration
[5]; Aedes aegypti, 24 h, read-out: 24-hr percentage mortality
  mortality at 500 µg/mL: 11.2%
[5]; chlorfenapyr 75 ug/mL, Formula 13 500 ug/mL, alone or combined, words
  percentage mortality at 24 hour: very low mortality
[6]; mosquito, 1 hour
  1-hour Knockdown EC50 (μg/g mosquito): 182 μg/g mosquito
[6]; 24 h, read-out: 24-hour Mortality LD50 (μg/g mosquito)
  LD50: 119 mg/kg
